ChEMBL document CHEMBL4619712, “Double-component diazeniumdiolate derivatives as anti-cancer agents” (Bioorg Med Chem, 2020)
The source made the active and inactive calls. The calls are words filed in the database; no cut-off is given here.

What was measured:
CCRF-CEM [1] = test: Induction of apoptosis in human CCRF-CEM cells assessed as necrotic cells at 8 uM after 48 hrs by Annexin V/propidium iodide staining based flow cytometry (reference value: 0.11%); format: functional
CCRF-CEM [2] = test: Induction of apoptosis in human CCRF-CEM cells assessed as early apoptotic cells at 4 uM after 72 hrs by Annexin V/propidium iodide staining based flow cytometry (reference value: 0.87%); format: functional
CCRF-CEM [3] = test: Cell cycle arrest in human CCRF-CEM cells assessed as accumulation of cells at G2/M phase at 8 uM after 48 hrs by RNAse/propidium iodide staining based flow cytometry (reference value: 25.6%); format: functional
CCRF-CEM [4] = test: Cell cycle arrest in human CCRF-CEM cells assessed as accumulation of cells at G2/M phase at 8 uM after 24 hrs by RNAse/propidium iodide staining based flow cytometry (reference value: 25.6%); format: functional
CCRF-CEM [5] = test: Induction of apoptosis in human CCRF-CEM cells assessed as late apoptotic cells at 8 uM after 24 hrs by Annexin V/propidium iodide staining based flow cytometry (reference value: 8.60%); format: functional
CCRF-CEM [6] = test: Induction of apoptosis in human CCRF-CEM cells assessed as necrotic cells at 4 uM after 72 hrs by Annexin V/propidium iodide staining based flow cytometry (reference value: 0.11%); format: functional
[7] = biological target: T1, c-Jun N-terminal kinase, JNK (Homo sapiens) (UniProt P45983+P53779+P45984); test: Activation of JNK in human CCRF-CEM cells assessed as increase in phosphorylated JNK level at 8 uM incubated for 1 to 6 hrs by Western blot analysis; format: cell-based
CCRF-CEM [8] = test: Induction of apoptosis in human CCRF-CEM cells assessed as necrotic cells at 16 uM after 72 hrs by Annexin V/propidium iodide staining based flow cytometry (reference value: 0.11%); format: functional
CCRF-CEM [9] = test: Cell cycle arrest in human CCRF-CEM cells assessed as accumulation of cells at S phase at 8 uM after 72 hrs by RNAse/propidium iodide staining based flow cytometry (reference value: 46%); format: functional
CCRF-CEM [10] = test: Cell cycle arrest in human CCRF-CEM cells assessed as accumulation of cells at sub G1 phase at 8 uM after 24 hrs by RNAse/propidium iodide staining based flow cytometry (reference value: 0.1%); format: functional
CCRF-CEM [11] = test: Induction of apoptosis in human CCRF-CEM cells assessed as viable cells at 4 uM after 72 hrs by Annexin V/propidium iodide staining based flow cytometry (reference value: 90.4%); format: functional; conditions: read-out: Activity
CCRF-CEM [12] = test: Induction of apoptosis in human CCRF-CEM cells assessed as late apoptotic cells at 8 uM after 48 hrs by Annexin V/propidium iodide staining based flow cytometry (reference value: 8.60%); format: functional
CCRF-CEM [13] = test: (§1) Induction of apoptosis in human CCRF-CEM cells assessed as viable cells at 8 uM after 72 hrs by Annexin V/propidium iodide staining based flow cytometry (reference value: 90.4%); format: functional; conditions: read-out: Activity
CCRF-CEM [14] = test: Induction of apoptosis in human CCRF-CEM cells assessed as late apoptotic cells at 8 uM after 8 hrs by Annexin V/propidium iodide staining based flow cytometry (reference value: 8.60%); format: functional
[15] = biological target: T2, MAP kinase p38 (Homo sapiens) (UniProt O15264+Q15759+Q16539+P53778); test: Activation of p38 in human CCRF-CEM cells assessed as increase in phosphorylated p38 level at 8 uM incubated for 1 to 6 hrs by Western blot analysis; format: cell-based
CCRF-CEM [16] = test: Induction of apoptosis in human CCRF-CEM cells assessed as early apoptotic cells at 8 uM after 24 hrs by Annexin V/propidium iodide staining based flow cytometry (reference value: 0.87%); format: functional
CCRF-CEM [17] = test: Cell cycle arrest in human CCRF-CEM cells assessed as accumulation of cells at G1/G0 phase at 8 uM after 24 hrs by RNAse/propidium iodide staining based flow cytometry (reference value: 28.3%); format: functional
CCRF-CEM [18] = test: Induction of apoptosis in human CCRF-CEM cells assessed as early apoptotic cells at 16 uM after 72 hrs by Annexin V/propidium iodide staining based flow cytometry (reference value: 0.87%); format: functional
CCRF-CEM [19] = test: Induction of apoptosis in human CCRF-CEM cells assessed as early apoptotic cells at 8 uM after 48 hrs by Annexin V/propidium iodide staining based flow cytometry (reference value: 0.87%); format: functional
CCRF-CEM [20] = test: Induction of apoptosis in human CCRF-CEM cells assessed as late apoptotic cells at 2 uM after 72 hrs by Annexin V/propidium iodide staining based flow cytometry (reference value: 8.60%); format: functional
CCRF-CEM [21] = test: Induction of apoptosis in human CCRF-CEM cells assessed as early apoptotic cells at 2 uM after 72 hrs by Annexin V/propidium iodide staining based flow cytometry (reference value: 0.87%); format: functional
CCRF-CEM [22] = test: Induction of apoptosis in human CCRF-CEM cells assessed as necrotic cells at 8 uM after 8 hrs by Annexin V/propidium iodide staining based flow cytometry (reference value: 0.11%); format: functional
CCRF-CEM [23] = test: Induction of apoptosis in human CCRF-CEM cells assessed as viable cells at 2 uM after 72 hrs by Annexin V/propidium iodide staining based flow cytometry (reference value: 90.4%); format: functional; conditions: read-out: Activity
CCRF-CEM [24] = test: Induction of apoptosis in human CCRF-CEM cells assessed as decrease in Bcl-2 level after 72 hrs by western blot analysis; format: functional, cell-based
CCRF-CEM [25] = test: Induction of apoptosis in human CCRF-CEM cells assessed as decrease in Bcl-2 level at 8 uM by Western blot analysis; format: functional, cell-based; conditions: TDE = time-dependent effect
[26] = biological target: T2, MAP kinase p38 (Homo sapiens); test: Activation of p38 in human CCRF-CEM cells assessed as increase in p38 level at 8 uM incubated for 1 to 6 hrs by Western blot analysis; format: cell-based
CCRF-CEM [27] = test: (§2) Induction of apoptosis in human CCRF-CEM cells assessed as early apoptotic cells at 8 uM after 72 hrs by Annexin V/propidium iodide staining based flow cytometry (reference value: 0.87%); format: functional
[28] = biological target: T1, c-Jun N-terminal kinase, JNK (Homo sapiens); test: Activation of JNK in human CCRF-CEM cells assessed as increase in JNK level at 8 uM incubated for 1 to 6 hrs by Western blot analysis; format: cell-based
CCRF-CEM [29] = test: Induction of apoptosis in human CCRF-CEM cells assessed as early apoptotic cells at 8 uM after 8 hrs by Annexin V/propidium iodide staining based flow cytometry (reference value: 0.87%); format: functional
CCRF-CEM [30] = test: Cell cycle arrest in human CCRF-CEM cells assessed as accumulation of cells at sub G1 phase at 8 uM after 72 hrs by RNAse/propidium iodide staining based flow cytometry (reference value: 0.1%); format: functional
CCRF-CEM [31] = test: Cell cycle arrest in human CCRF-CEM cells assessed as accumulation of cells at S phase at 8 uM after 48 hrs by RNAse/propidium iodide staining based flow cytometry (reference value: 46%); format: functional
CCRF-CEM [32] = test: Induction of apoptosis in human CCRF-CEM cells assessed as viable cells at 8 uM after 48 hrs by Annexin V/propidium iodide staining based flow cytometry (reference value: 90.4%); format: functional; conditions: read-out: Activity
CCRF-CEM [33] = test: as §1; format: functional; conditions: read-out: Activity; remark: listed apart in the source
CCRF-CEM [34] = test: Cell cycle arrest in human CCRF-CEM cells assessed as accumulation of cells at G1/G0 phase at 8 uM after 48 hrs by RNAse/propidium iodide staining based flow cytometry (reference value: 28.3%); format: functional
CCRF-CEM [35] = test: Induction of apoptosis in human CCRF-CEM cells assessed as increase in Bax level after 72 hrs by western blot analysis; format: functional, cell-based
CCRF-CEM [36] = test: (§3) Induction of apoptosis in human CCRF-CEM cells assessed as late apoptotic cells at 8 uM after 72 hrs by Annexin V/propidium iodide staining based flow cytometry (reference value: 8.60%); format: functional
CCRF-CEM [37] = test: (§4) Induction of apoptosis in human CCRF-CEM cells assessed as necrotic cells at 8 uM after 72 hrs by Annexin V/propidium iodide staining based flow cytometry (reference value: 0.11%); format: functional
CCRF-CEM [38] = test: as §2; format: functional; remark: listed apart in the source
CCRF-CEM [39] = test: Induction of apoptosis in human CCRF-CEM cells assessed as late apoptotic cells at 16 uM after 72 hrs by Annexin V/propidium iodide staining based flow cytometry (reference value: 8.60%); format: functional
CCRF-CEM [40] = test: Induction of apoptosis in human CCRF-CEM cells assessed as late apoptotic cells at 4 uM after 72 hrs by Annexin V/propidium iodide staining based flow cytometry (reference value: 8.60%); format: functional
CCRF-CEM [41] = test: Cell cycle arrest in human CCRF-CEM cells assessed as accumulation of cells at S phase at 8 uM after 24 hrs by RNAse/propidium iodide staining based flow cytometry (reference value: 46%); format: functional
CCRF-CEM [42] = test: as §3; format: functional; remark: listed apart in the source
CCRF-CEM [43] = test: Cell cycle arrest in human CCRF-CEM cells assessed as accumulation of cells at G1/G0 phase at 8 uM after 72 hrs by RNAse/propidium iodide staining based flow cytometry (reference value: 28.3%); format: functional
CCRF-CEM [44] = test: Cell cycle arrest in human CCRF-CEM cells assessed as accumulation of cells at G2/M phase at 8 uM after 72 hrs by RNAse/propidium iodide staining based flow cytometry (reference value: 25.6%); format: functional
CCRF-CEM [45] = test: Induction of apoptosis in human CCRF-CEM cells assessed as increase in Bax level at 8 uM by Western blot analysis; format: functional, cell-based; conditions: TDE = time-dependent effect
CCRF-CEM [46] = test: Induction of apoptosis in human CCRF-CEM cells assessed as viable cells at 16 uM after 72 hrs by Annexin V/propidium iodide staining based flow cytometry (reference value: 90.4%); format: functional; conditions: read-out: Activity
CCRF-CEM [47] = test: Induction of apoptosis in human CCRF-CEM cells after 72 hrs by Annexin V-FITC/propidium iodide staining based flow cytometry; format: functional, cell-based
CCRF-CEM [48] = test: Cell cycle arrest in human CCRF-CEM cells assessed as accumulation of cells at sub G1 phase at 8 uM after 48 hrs by RNAse/propidium iodide staining based flow cytometry (reference value: 0.1%); format: functional
CCRF-CEM [49] = test: Induction of apoptosis in human CCRF-CEM cells assessed as viable cells at 8 uM after 8 hrs by Annexin V/propidium iodide staining based flow cytometry (reference value: 90.4%); format: functional; conditions: read-out: Activity
CCRF-CEM [50] = test: as §4; format: functional; remark: listed apart in the source
CCRF-CEM [51] = test: Induction of apoptosis in human CCRF-CEM cells assessed as necrotic cells at 8 uM after 24 hrs by Annexin V/propidium iodide staining based flow cytometry (reference value: 0.11%); format: functional
CCRF-CEM [52] = test: Induction of apoptosis in human CCRF-CEM cells assessed as necrotic cells at 2 uM after 72 hrs by Annexin V/propidium iodide staining based flow cytometry (reference value: 0.11%); format: functional
CCRF-CEM [53] = test: Induction of apoptosis in human CCRF-CEM cells assessed as viable cells at 8 uM after 24 hrs by Annexin V/propidium iodide staining based flow cytometry (reference value: 90.4%); format: functional; conditions: read-out: Activity
CCRF-CEM [54] = test: Induction of apoptosis in human CCRF-CEM cells at 8 uM by Annexin V-FITC/propidium iodide staining based flow cytometry; format: functional, cell-based; conditions: TDE = time-dependent effect

Activity [7]: Active
Activity [15]: Active
Activity [26]: Active
Activity [28]: Active
Compound: O=[N+]([O-])c1ccc(O/N=[N+](\[O-])N2CCC(CN3CCN(/[N+]([O-])=N/Oc4ccc([N+](=O)[O-])cc4[N+](=O)[O-])CC3)CC2)c([N+](=O)[O-])c1
Activity (CCRF-CEM [1]): 0.058%
Activity (CCRF-CEM [2]): 3.53%
Activity (CCRF-CEM [3]): 54.5%
Activity (CCRF-CEM [4]): 45.7%
Activity (CCRF-CEM [5]): 27.9%
Activity (CCRF-CEM [6]): 0.028%
Activity (CCRF-CEM [8]): 0.08%
Activity (CCRF-CEM [9]): 0%
Activity (CCRF-CEM [10]): 3.5%
viability at 4 µM (CCRF-CEM [11]): 77.9%
Activity (CCRF-CEM [12]): 49.8%
viability at 8 µM (CCRF-CEM [13]): 42.5%
Activity (CCRF-CEM [14]): 24.3%
Activity (CCRF-CEM [16]): 7.03%
Activity (CCRF-CEM [17]): 24.5%
Activity (CCRF-CEM [18]): 3.64%
Activity (CCRF-CEM [19]): 6.51%
Activity (CCRF-CEM [20]): 9.53%
Activity (CCRF-CEM [21]): 3%
Activity (CCRF-CEM [22]): 0.38%
viability at 2 µM (CCRF-CEM [23]): 87.5%
Activity (CCRF-CEM [24]): Dose-dependent effect
Activity (CCRF-CEM [25]): Tde
Activity (CCRF-CEM [27]): 8.93%
Activity (CCRF-CEM [29]): 13.8%
Activity (CCRF-CEM [30]): 7.5%
Activity (CCRF-CEM [31]): 8.2%
viability at 8 µM (CCRF-CEM [32]): 43.6%
viability at 8 µM (CCRF-CEM [33]): 34.8%
Activity (CCRF-CEM [34]): 28.9%
Activity (CCRF-CEM [35]): Dose-dependent effect
Activity (CCRF-CEM [36]): 52.5%
Activity (CCRF-CEM [37]): 0.11%
Activity (CCRF-CEM [38]): 4.93%
Activity (CCRF-CEM [39]): 95.6%
Activity (CCRF-CEM [40]): 10.6%
Activity (CCRF-CEM [41]): 26.3%
Activity (CCRF-CEM [42]): 56.2%
Activity (CCRF-CEM [43]): 28.8%
Activity (CCRF-CEM [44]): 63.7%
Activity (CCRF-CEM [45]): Tde
viability at 16 µM (CCRF-CEM [46]): 0.63%
Activity (CCRF-CEM [47]): Dose-dependent effect
Activity (CCRF-CEM [48]): 8.4%
viability at 8 µM (CCRF-CEM [49]): 61.5%
Activity (CCRF-CEM [50]): 0.077%
Activity (CCRF-CEM [51]): 0.072%
Activity (CCRF-CEM [52]): 0.015%
viability at 8 µM (CCRF-CEM [53]): 65%
Activity (CCRF-CEM [54]): Tde
